In ChEMBL document CHEMBL3885881, “DrugMatrix”:

Species: Rattus norvegicus
Test: DrugMatrix - Regimen: Daily Repeat
Type: toxicity, organism-based, Sprague-Dawley
Set-up: regimen Daily Repeat, gender Male, age 6-8 weeks
Details: in vivo, po, route oral GAVAGE, vehicle .5 % CMC; for ABSOLUTE BASOPHIL / ABSOLUTE EOSINOPHIL / ABSOLUTE LYMPHOCYTE / ABSOLUTE MONOCYTE / ABSOLUTE SEGMENTED NEUTROPHIL / BASOPHIL / EOSINOPHIL / ERYTHROCYTE COUNT / HEMATOCRIT / HEMOGLOBIN / LEUKOCYTE COUNT / LYMPHOCYTE / MEAN CORPUSCULAR HEMOGLOBIN / MEAN CORPUSCULAR HEMOGLOBIN CONCENTRATION / MEAN CORPUSCULAR VOLUME / MONOCYTE / NEUTROPHIL / NUCLEATED RED BLOOD CELLS / PLATELET COUNT: tissue Blood; for ALANINE AMINOTRANSFERASE / ALBUMIN / ALKALINE PHOSPHATASE / ASPARTATE AMINOTRANSFERASE / BLOOD UREA NITROGEN / CARBON DIOXIDE / CHLORIDE / CHOLESTEROL / CREATINE PHOSPHOKINASE / CREATININE / GLUCOSE / LACTATE DEHYDROGENASE / LIPASE / PHOSPHORUS / POTASSIUM / SODIUM / TOTAL BILIRUBIN / TOTAL PROTEIN / URIC ACID: tissue Plasma
[1] = 75 mg/kg, 72 h, dose level Low, time 3 day
[2] = 75 mg/kg, 120 h, dose level Low, time 5 day
[3] = 750 mg/kg, 72 h, dose level High, time 3 day
[4] = 750 mg/kg, 120 h, dose level High, time 5 day

CC(=O)OC[C@H]1O[C@@H](n2ncc(=O)[nH]c2=O)[C@H](OC(C)=O)[C@@H]1OC(C)=O [AZARIBINE]
ABSOLUTE BASOPHIL [1]: 0 CELLS/uL
ABSOLUTE EOSINOPHIL [1]: 0 CELLS/uL
ABSOLUTE LYMPHOCYTE [1]: 12537.67 CELLS/uL
ABSOLUTE MONOCYTE [1]: 196 CELLS/uL
ABSOLUTE SEGMENTED NEUTROPHIL [1]: 1699.67 CELLS/uL
BASOPHIL [1]: 0%
EOSINOPHIL [1]: 0%
ERYTHROCYTE COUNT [1]: 5.31 x10E6/uL
HEMATOCRIT [1]: 32.6%
HEMOGLOBIN [1]: 12.37 G/DL
LEUKOCYTE COUNT [1]: 14.43 x10E3/uL
LYMPHOCYTE [1]: 87%
MEAN CORPUSCULAR HEMOGLOBIN [1]: 23.3 pg
MEAN CORPUSCULAR HEMOGLOBIN CONCENTRATION [1]: 37.93 G/DL
MEAN CORPUSCULAR VOLUME [1]: 61.4 fL
MONOCYTE [1]: 1.33%
NEUTROPHIL [1]: 11.67%
NUCLEATED RED BLOOD CELLS [1]: 0 /100WBC
PLATELET COUNT [1]: 1235.33 x10E3/uL
ALANINE AMINOTRANSFERASE [1]: 37 u/L
ALBUMIN [1]: 4.13 G/DL
ALKALINE PHOSPHATASE [1]: 384.67 u/L
ASPARTATE AMINOTRANSFERASE [1]: 74.67 u/L
BLOOD UREA NITROGEN [1]: 16.33 mg/dL
CARBON DIOXIDE [1]: 24.33 mmol/L
CHLORIDE [1]: 100.67 MEQ/L
CHOLESTEROL [1]: 73 mg/dL
CREATINE PHOSPHOKINASE [1]: 254.33 u/L
CREATININE [1]: 0.25 mg/dL
GLUCOSE [1]: 157.67 mg/dL
LACTATE DEHYDROGENASE [1]: 151 u/L
LIPASE [1]: 10.33 u/L
PHOSPHORUS [1]: 12.53 mg/dL
POTASSIUM [1]: 5.81 MEQ/L
SODIUM [1]: 141.13 MEQ/L
TOTAL BILIRUBIN [1]: 0.17 mg/dL
TOTAL PROTEIN [1]: 6.2 G/DL
URIC ACID [1]: 1.1 mg/dL
ABSOLUTE BASOPHIL [2]: 0 CELLS/uL
ABSOLUTE EOSINOPHIL [2]: 42.67 CELLS/uL
ABSOLUTE LYMPHOCYTE [2]: 10939.33 CELLS/uL
ABSOLUTE MONOCYTE [2]: 627 CELLS/uL
ABSOLUTE SEGMENTED NEUTROPHIL [2]: 1691 CELLS/uL
BASOPHIL [2]: 0%
EOSINOPHIL [2]: 0.33%
ERYTHROCYTE COUNT [2]: 5.34 x10E6/uL
HEMATOCRIT [2]: 32.93%
HEMOGLOBIN [2]: 12.57 G/DL
LEUKOCYTE COUNT [2]: 13.3 x10E3/uL
LYMPHOCYTE [2]: 82.33%
MEAN CORPUSCULAR HEMOGLOBIN [2]: 23.53 pg
MEAN CORPUSCULAR HEMOGLOBIN CONCENTRATION [2]: 38.17 G/DL
MEAN CORPUSCULAR VOLUME [2]: 61.67 fL
MONOCYTE [2]: 4.67%
NEUTROPHIL [2]: 12.67%
NUCLEATED RED BLOOD CELLS [2]: 0 /100WBC
PLATELET COUNT [2]: 932 x10E3/uL
ALANINE AMINOTRANSFERASE [2]: 43.33 u/L
ALBUMIN [2]: 3.93 G/DL
ALKALINE PHOSPHATASE [2]: 273 u/L
ASPARTATE AMINOTRANSFERASE [2]: 76 u/L
BLOOD UREA NITROGEN [2]: 16.67 mg/dL
CARBON DIOXIDE [2]: 33 mmol/L
CHLORIDE [2]: 95.33 MEQ/L
CHOLESTEROL [2]: 74 mg/dL
CREATINE PHOSPHOKINASE [2]: 309 u/L
CREATININE [2]: 0.2 mg/dL
GLUCOSE [2]: 150 mg/dL
LACTATE DEHYDROGENASE [2]: 226 u/L
LIPASE [2]: 10.33 u/L
PHOSPHORUS [2]: 12.03 mg/dL
POTASSIUM [2]: 6.04 MEQ/L
SODIUM [2]: 140.6 MEQ/L
TOTAL BILIRUBIN [2]: 0.1 mg/dL
TOTAL PROTEIN [2]: 5.93 G/DL
URIC ACID [2]: 1.33 mg/dL
ABSOLUTE BASOPHIL [3]: 0 CELLS/uL
ABSOLUTE EOSINOPHIL [3]: 37.33 CELLS/uL
ABSOLUTE LYMPHOCYTE [3]: 11597.33 CELLS/uL
ABSOLUTE MONOCYTE [3]: 87.33 CELLS/uL
ABSOLUTE SEGMENTED NEUTROPHIL [3]: 844.67 CELLS/uL
BASOPHIL [3]: 0%
EOSINOPHIL [3]: 0.33%
ERYTHROCYTE COUNT [3]: 4.98 x10E6/uL
HEMATOCRIT [3]: 31.27%
HEMOGLOBIN [3]: 11.73 G/DL
LEUKOCYTE COUNT [3]: 12.57 x10E3/uL
LYMPHOCYTE [3]: 92%
MEAN CORPUSCULAR HEMOGLOBIN [3]: 23.63 pg
MEAN CORPUSCULAR HEMOGLOBIN CONCENTRATION [3]: 37.53 G/DL
MEAN CORPUSCULAR VOLUME [3]: 62.9 fL
MONOCYTE [3]: 0.67%
NEUTROPHIL [3]: 7%
NUCLEATED RED BLOOD CELLS [3]: 0 /100WBC
PLATELET COUNT [3]: 1125.67 x10E3/uL
ALANINE AMINOTRANSFERASE [3]: 29 u/L
ALBUMIN [3]: 4.23 G/DL
ALKALINE PHOSPHATASE [3]: 344 u/L
ASPARTATE AMINOTRANSFERASE [3]: 95.33 u/L
BLOOD UREA NITROGEN [3]: 18 mg/dL
CARBON DIOXIDE [3]: 25.67 mmol/L
CHLORIDE [3]: 101 MEQ/L
CHOLESTEROL [3]: 66 mg/dL
CREATINE PHOSPHOKINASE [3]: 781.33 u/L
CREATININE [3]: 0.22 mg/dL
GLUCOSE [3]: 147.33 mg/dL
LACTATE DEHYDROGENASE [3]: 248.33 u/L
LIPASE [3]: 10.33 u/L
PHOSPHORUS [3]: 12.2 mg/dL
POTASSIUM [3]: 5.97 MEQ/L
SODIUM [3]: 141.5 MEQ/L
TOTAL BILIRUBIN [3]: 0.2 mg/dL
TOTAL PROTEIN [3]: 6.1 G/DL
URIC ACID [3]: 1.43 mg/dL
ABSOLUTE BASOPHIL [4]: 0 CELLS/uL
ABSOLUTE EOSINOPHIL [4]: 49.33 CELLS/uL
ABSOLUTE LYMPHOCYTE [4]: 12972.67 CELLS/uL
ABSOLUTE MONOCYTE [4]: 95.67 CELLS/uL
ABSOLUTE SEGMENTED NEUTROPHIL [4]: 649 CELLS/uL
BASOPHIL [4]: 0%
EOSINOPHIL [4]: 0.33%
ERYTHROCYTE COUNT [4]: 5 x10E6/uL
HEMATOCRIT [4]: 29.63%
HEMOGLOBIN [4]: 11.47 G/DL
LEUKOCYTE COUNT [4]: 13.77 x10E3/uL
LYMPHOCYTE [4]: 94.33%
MEAN CORPUSCULAR HEMOGLOBIN [4]: 22.93 pg
MEAN CORPUSCULAR HEMOGLOBIN CONCENTRATION [4]: 38.7 G/DL
MEAN CORPUSCULAR VOLUME [4]: 59.27 fL
MONOCYTE [4]: 0.67%
NEUTROPHIL [4]: 4.67%
NUCLEATED RED BLOOD CELLS [4]: 0 /100WBC
PLATELET COUNT [4]: 1279 x10E3/uL
ALANINE AMINOTRANSFERASE [4]: 26.67 u/L
ALBUMIN [4]: 4.07 G/DL
ALKALINE PHOSPHATASE [4]: 306.67 u/L
ASPARTATE AMINOTRANSFERASE [4]: 81.33 u/L
BLOOD UREA NITROGEN [4]: 15.33 mg/dL
CARBON DIOXIDE [4]: 30.33 mmol/L
CHLORIDE [4]: 98.67 MEQ/L
CHOLESTEROL [4]: 73.67 mg/dL
CREATINE PHOSPHOKINASE [4]: 266 u/L
CREATININE [4]: 0.22 mg/dL
GLUCOSE [4]: 135.67 mg/dL
LACTATE DEHYDROGENASE [4]: 347 u/L
LIPASE [4]: 10 u/L
PHOSPHORUS [4]: 11.07 mg/dL
POTASSIUM [4]: 6.41 MEQ/L
SODIUM [4]: 142.17 MEQ/L
TOTAL BILIRUBIN [4]: 0.1 mg/dL
TOTAL PROTEIN [4]: 6 G/DL
URIC ACID [4]: 1.37 mg/dL
